Consider 7 molecules from ChEMBL document CHEMBL1152112, “1-Phenyl-[2H]-tetrahydropyridazin-3-one, A-53612, a selective orally active 5-lipoxygenase inhibitor” (Bioorg Med Chem Lett, 1992).

The structures appear in SMILES notation.

For data set [1], the species on record is Rattus norvegicus. As to the kind of experiment: Toxicity was assessed from activity to convert hemoglobin to methemoglobin in vitro at 400 uM in rat; T-toxic.
The target in data set [2] is T1, Polyunsaturated fatty acid lipoxygenase ALOX12 (Homo sapiens) (UniProt P18054).
T1 sequence (whole entry): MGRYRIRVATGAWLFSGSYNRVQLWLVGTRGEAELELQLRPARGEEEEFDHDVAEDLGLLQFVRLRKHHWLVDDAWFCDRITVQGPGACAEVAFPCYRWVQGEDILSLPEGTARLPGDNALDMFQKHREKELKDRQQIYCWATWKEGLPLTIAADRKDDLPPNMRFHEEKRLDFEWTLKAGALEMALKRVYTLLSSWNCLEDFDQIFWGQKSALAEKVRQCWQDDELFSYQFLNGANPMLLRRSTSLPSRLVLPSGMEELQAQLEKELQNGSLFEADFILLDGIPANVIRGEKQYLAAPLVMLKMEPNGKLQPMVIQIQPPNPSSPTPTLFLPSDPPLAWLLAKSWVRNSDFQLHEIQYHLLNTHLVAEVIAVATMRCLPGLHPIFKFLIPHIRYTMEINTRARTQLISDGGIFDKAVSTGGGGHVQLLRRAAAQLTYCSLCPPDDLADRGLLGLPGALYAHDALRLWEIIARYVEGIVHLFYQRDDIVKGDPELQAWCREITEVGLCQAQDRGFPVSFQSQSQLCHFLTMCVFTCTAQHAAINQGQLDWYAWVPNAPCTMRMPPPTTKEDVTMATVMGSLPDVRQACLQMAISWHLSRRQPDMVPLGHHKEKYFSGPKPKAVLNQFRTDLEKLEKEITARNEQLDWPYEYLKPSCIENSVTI
As to the kind of experiment: Inhibitory activity against human platelet 12-lipoxygenase was evaluated at 100 uM.

For another data set, the target named is T2, Cyclooxygenase (Rattus norvegicus, UniProt P35355+Q63921).
T2 sequence (P35355 whole entry): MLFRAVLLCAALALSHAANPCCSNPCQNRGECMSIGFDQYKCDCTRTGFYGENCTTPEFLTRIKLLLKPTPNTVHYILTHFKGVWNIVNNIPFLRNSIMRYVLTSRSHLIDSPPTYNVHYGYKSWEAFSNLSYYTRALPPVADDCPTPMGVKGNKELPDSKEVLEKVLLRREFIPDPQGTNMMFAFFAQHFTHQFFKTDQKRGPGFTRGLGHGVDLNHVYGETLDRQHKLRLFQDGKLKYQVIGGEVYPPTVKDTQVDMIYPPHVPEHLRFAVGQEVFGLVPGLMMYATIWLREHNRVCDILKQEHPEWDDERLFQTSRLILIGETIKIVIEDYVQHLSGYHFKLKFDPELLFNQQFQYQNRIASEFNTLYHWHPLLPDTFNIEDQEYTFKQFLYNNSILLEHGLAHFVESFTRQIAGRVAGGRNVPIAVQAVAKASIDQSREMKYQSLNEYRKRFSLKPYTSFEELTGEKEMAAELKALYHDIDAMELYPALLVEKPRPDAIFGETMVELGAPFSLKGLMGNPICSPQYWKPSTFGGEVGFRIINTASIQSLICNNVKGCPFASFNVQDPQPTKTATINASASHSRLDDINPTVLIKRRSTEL
T2 sequence (Q63921 whole entry): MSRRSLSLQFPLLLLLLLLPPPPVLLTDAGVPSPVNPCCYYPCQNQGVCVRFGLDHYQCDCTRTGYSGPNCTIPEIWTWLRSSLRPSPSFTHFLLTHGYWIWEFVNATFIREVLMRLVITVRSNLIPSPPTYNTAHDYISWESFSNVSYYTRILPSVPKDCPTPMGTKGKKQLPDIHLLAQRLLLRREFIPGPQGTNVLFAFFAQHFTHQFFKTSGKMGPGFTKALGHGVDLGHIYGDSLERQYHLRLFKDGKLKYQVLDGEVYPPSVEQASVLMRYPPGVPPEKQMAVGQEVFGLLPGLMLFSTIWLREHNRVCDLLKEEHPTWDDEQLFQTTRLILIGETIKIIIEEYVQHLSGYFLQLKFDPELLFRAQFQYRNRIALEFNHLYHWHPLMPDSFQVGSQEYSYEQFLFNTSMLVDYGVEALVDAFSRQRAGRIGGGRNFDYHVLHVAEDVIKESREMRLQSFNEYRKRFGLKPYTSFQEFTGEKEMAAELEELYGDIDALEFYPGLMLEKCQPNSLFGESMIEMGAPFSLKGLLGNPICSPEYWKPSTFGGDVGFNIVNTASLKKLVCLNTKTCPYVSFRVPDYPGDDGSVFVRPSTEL
As to the kind of experiment: Inhibitory activity against intact rat PMNL, PGE-2 cyclooxygenase was evaluated. The class given is protein assay.

For data set [3], the system named is Rattus norvegicus. Nature of the data set: The in vivo activity of compound was evaluated in a rat anaphylaxis model involving antigen-antibody stimulated leukotriene generation in the peritoneum by oral administration. The class given is functional.
Data set [4] concerns the target T3, Polyunsaturated fatty acid lipoxygenase ALOX12 (Homo sapiens, UniProt P18054).
T3 sequence (P18054 whole entry): T1 sequence (whole entry)
Nature of the data set: Inhibitory activity against human platelet 12-lipoxygenase was evaluated.

Data set [5] concerns the target T4, Polyunsaturated fatty acid 5-lipoxygenase (Homo sapiens, UniProt P09917).
T4 sequence (P09917 whole entry): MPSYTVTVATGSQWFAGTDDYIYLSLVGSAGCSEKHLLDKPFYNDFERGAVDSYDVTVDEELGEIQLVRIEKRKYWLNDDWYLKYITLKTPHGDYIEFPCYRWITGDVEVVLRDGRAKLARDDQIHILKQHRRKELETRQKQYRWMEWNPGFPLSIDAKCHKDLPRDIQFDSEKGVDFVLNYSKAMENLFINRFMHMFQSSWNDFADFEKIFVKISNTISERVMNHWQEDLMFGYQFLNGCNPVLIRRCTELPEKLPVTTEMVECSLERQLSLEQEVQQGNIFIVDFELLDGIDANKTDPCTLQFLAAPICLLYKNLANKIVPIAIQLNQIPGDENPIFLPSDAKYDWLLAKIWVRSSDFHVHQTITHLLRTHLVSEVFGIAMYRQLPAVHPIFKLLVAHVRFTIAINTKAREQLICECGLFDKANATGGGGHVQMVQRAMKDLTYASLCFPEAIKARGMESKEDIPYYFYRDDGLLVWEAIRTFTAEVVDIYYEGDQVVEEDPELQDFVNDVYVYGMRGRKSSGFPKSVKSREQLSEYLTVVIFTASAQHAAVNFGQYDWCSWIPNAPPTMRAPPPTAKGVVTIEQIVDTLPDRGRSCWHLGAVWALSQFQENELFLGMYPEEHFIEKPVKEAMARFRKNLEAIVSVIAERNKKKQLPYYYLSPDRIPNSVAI
As to the kind of experiment: Inhibitory activity against human whole blood, LTB4 5-lipoxygenase was evaluated.

Data set [6] concerns the target T4, Polyunsaturated fatty acid 5-lipoxygenase. As to the kind of experiment: Inhibitory activity against intact human PMNL, LTB4 5-lipoxygenase was evaluated.
The target in data set [7] is T5, Polyunsaturated fatty acid 5-lipoxygenase (Rattus norvegicus, UniProt P12527).
T5 sequence (P12527 whole entry): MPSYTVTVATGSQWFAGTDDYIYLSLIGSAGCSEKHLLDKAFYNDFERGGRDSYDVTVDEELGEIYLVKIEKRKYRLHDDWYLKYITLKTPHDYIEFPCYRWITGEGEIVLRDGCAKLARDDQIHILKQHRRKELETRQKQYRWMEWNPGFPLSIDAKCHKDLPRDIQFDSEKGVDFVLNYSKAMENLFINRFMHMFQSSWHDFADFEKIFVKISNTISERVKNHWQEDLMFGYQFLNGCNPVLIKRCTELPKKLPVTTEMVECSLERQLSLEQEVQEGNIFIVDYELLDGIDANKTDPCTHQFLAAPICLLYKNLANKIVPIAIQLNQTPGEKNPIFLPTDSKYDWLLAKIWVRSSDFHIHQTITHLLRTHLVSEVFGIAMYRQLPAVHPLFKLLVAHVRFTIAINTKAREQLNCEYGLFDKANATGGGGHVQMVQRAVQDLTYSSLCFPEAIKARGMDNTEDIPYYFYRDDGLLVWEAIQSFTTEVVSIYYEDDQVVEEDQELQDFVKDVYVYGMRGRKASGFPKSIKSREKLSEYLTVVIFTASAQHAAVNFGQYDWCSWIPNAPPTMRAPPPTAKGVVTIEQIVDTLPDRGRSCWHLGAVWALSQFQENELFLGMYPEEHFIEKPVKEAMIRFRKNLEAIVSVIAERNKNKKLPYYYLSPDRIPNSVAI
As to the kind of experiment: Inhibitory activity against RBL broken cell-supematant 5-lipoxygenase was evaluated. The class given is cell-based.

In data set [8] the target is T5, Polyunsaturated fatty acid 5-lipoxygenase. Nature of the data set: Inhibitory activity against intact rat PMNL, LTB4 5-lipoxygenase was evaluated.
A short description of data set [9]: Compound was evaluated for Plasma levels upon oral administration at 30 mg/kg in Dog at maximum of 0.3 hours. The class given is ADME, organism-based, Canis lupus familiaris. Set-up: dose 30 mg/kg, route oral.
Data set [10] is described as follows: Compound was evaluated for Plasma levels upon oral administration at 30 mg/kg in Monkey at maximum of 0.4 hours. The class given is ADME, organism-based. Set-up: dose 30 mg/kg, route oral. Conditions: cercopithecidae, read-out: Concentration.
Data set [11] can be described thus: Compound was evaluated for Plasma levels upon oral administration at 30 mg/kg in Monkey at maximum of 1.0 hours. To be noted: cercopithecidae, read-out: Concentration. Set-up: dose 30 mg/kg, route oral. Format: ADME, organism-based.
Data set [12] is described as follows: Half-life upon intravenous administration was tested. Format: ADME, organism-based. To be noted: in vivo.
Data set [13] addresses Cyclooxygenase (Rattus norvegicus) (UniProt P35355+Q63921). Nature of the data set: Inhibitory activity against intact rat PMNL, PGE-2 cyclooxygenase was evaluated at 100 uM. The class given is protein assay.
The subject of data set [14] is Rattus norvegicus. As to the kind of experiment: In vivo activity of compound was evaluated in a rat anaphylaxis model involving antigen-antibody stimulated leukotriene generation in the peritoneum by oral administration. Format: functional.
Data set [15] has as its target Cyclooxygenase (Homo sapiens) (UniProt P35354+P23219). As to the kind of experiment: Inhibitory activity against human whole blood, TXB2 cyclooxygenase was evaluated at 100 uM. Format: protein assay.

In the case of `O=C1CCCN(c2ccc(O[C@H]3O[C@@H](C(=O)O)[C@H](O)[C@@H](O)[C@@H]3O)cc2)N1`, in the data set listed under Rattus norvegicus [1], the Activity result is “Toxic”.
As to `NC1=NN(c2cccc(C(F)(F)F)c2)CC1` [BW-755C], the inhibition – broadly, the percentage by which the read-out fell short of the control – in [2] is 5%. The IC50 (in general, the concentration at which inhibition is half-maximal) against Cyclooxygenase amounted to 0.8 µM. Further, in the data set with Rattus norvegicus [3], the ED50 (commonly the midpoint of the dose-response relation) was 36 mg/kg.
In data set [4], `O=C1CCN(c2ccccc2)N1` [PHENIDONE] came in with an IC50 of 0.1 µM. In the data set with Rattus norvegicus [3], the ED50 turned out to be 17 mg/kg.
As to `O=C1CCC(O)N(c2ccccc2)N1` (stereo unspecified), in the data set listed under Rattus norvegicus [1], the Activity entry is “Toxic”.
Turning to `O=C1CCCN(c2ccccc2)N1`, the figures for the inhibition in data set [2], in data set [13] and in data set [15] were 7%, 3% and 13%, respectively. For the same molecule, the IC50 in [5] was determined as 0.7 µM; in data set [6], 1 µM; in data set [7] it was 4.3 µM; in [8] it was 1.2 µM. Further, the concentration at 0.3 h in data set [9] came to 124 µM. Besides, the Cmax was found to be 22 µM in data set [10] and 90 µM in [11]. Besides, in data set [12], the half-life – broadly, the time in which the quantity being followed falls by half – is 1.1 h. Besides, the ED50 with Rattus norvegicus [14] is 6 mg/kg.
As for `O=C(O)[C@H]1O[C@@H](OC2=NN(c3ccccc3)CCC2)[C@H](O)[C@@H](O)[C@@H]1O`, the Activity entry in the data set filed under Rattus norvegicus [1] is listed as “Toxic”.
In the case of `O=C1CCCN(c2ccc(O)cc2)N1`, the Activity result in the data set filed under Rattus norvegicus [1] is given as “Toxic”.
